The values that follow come from patent US8937167B2 (Washington University, priority 2009, dated 2015).

SMILES strings stand for the structures. pEC50, pKd: −log10 of the molar value. ≈ marks a conversion by molar mass, not a printed value. Where “and” joins values, the source holds several entries; their conditions need not be identical. Equal entries are not always repeated. Entries after “also recorded” stand apart in the source; their conditions may differ. Where two headings read alike, the source gives them in different places.

The pKd is the negative decadic logarithm of the Kd, by convention in mol/L. By pEC50 is commonly meant the EC50 on a negative log10 scale, so that one unit is a factor of ten. Read a high pEC50 as a low EC50.

The subject of assay [1] is PBC-1. As to the kind of experiment: Growth curve / MIC determination in LB. It is filed as cell-based, E. coli (UPEC). To be noted: PBC-1. As to the method: Growth curve. […] Mannoside ZFH-2056 was added at 100 μM. Growth curves were performed in a 96-well plate at 37° C. with A600 readings taken every 30 min for 8 h.
(§1) Mannoside 6 was added at 100 μM. Growth curves were performed in a 96-well plate at 37° C. with A600 readings taken every 30 min for 8 h. Minimum inhibitory concentration (MIC) was calculated as the lowest concentration of antibiotic that prevented growth of the bacterial strain.

In assay [2] the test system is UTI89. Description: Growth curve / MIC determination in LB. The format is cell-based, E. coli (UPEC). The note with it: Escherichia coli. As for the experimental part:
as §1

The subject of assay [3] is UTI89 biofilm. As to the kind of experiment: Biofilm in human urine under flow on silicone tubing (crystal violet, CFU). It is filed as cell-based, uropathogenic E. coli UTI89. To be noted: 1% in human urine, 24 h. As for the experimental part: Biofilms were grown as described by Ferrieres et al. (2007; FEMS Immun. Med. Micro 51:212) on All Silicone Foley catheters (Bard Medical, GA) or silicone tubing (Thermo Fisher Scientific Inc., PA) and modified as follows. All tubing and connectors in the system were autoclaved and ethanol sterilized prior to use. The system was assembled similar to the previously described flow-chamber system. Priming of the catheter or the silicone tubing occurred at 37° C. for 20 min by flowing pre-warmed pooled human urine. Urine was collected from healthy volunteers as approved by the Institutional Review Board of Washington University in St. Louis. Pooled samples were spun at 10000×g for 15 min, filtered through […], and, if necessary, stored at 4° C. for no more than 3 days. Three milliliters of stationary-phase E. coli from overnight cultures were diluted to 1−2×10^6 CFU/ml in human urine and injected into the catheter or silicone tubing using a 30 cc gauge needle. The bacteria were allowed to attach to the substratum for 1 h before urine flow via Watson-Marlow peristaltic pump 205S was resumed at 0.5 ml min^−1. […] Viable bacterial counts were assessed by serial dilution on LB plate with appropriate antibiotics. […] The bound crystal violet was then dissolved in 200 μl of 33% acetic acid and absorbance measured at 595 nm. The amount of biofilm was expressed as CFU/ml per cm^2 and A595/cm^2. […]

In assay [4] the target is T1, FimH (Escherichia coli, UniProt P08191). The note with it: previously reported, SPR, cited from earlier work.
Assay [5] has as its target T1, FimH. Description: biochemical. The note with it: FP assay potency. The format is binding, E. coli.
From the text: In order to more accurately determine the relative contributions of both binding affinity to FimH versus other compound properties to the potency seen in the cellular HA titer assay, a high-throughput fluorescence polarization (FP) (or anisotropy) competitive binding assay was developed using a fluorescent-labeled mannoside ligand shown in Scheme 4.
A fluorescent polarization assay was developed and miniaturized to monitor the direct binding of a synthesized fluorescently labeled butyl mannose derivative to the FimH receptor as well as competitive displacement by other synthetic mannosides. This fluorescent polarization assay provides a rapid method for monitoring improvements to receptor affinity during the synthetic process, as well as providing Kd binding affinity measurements.
In assay [6] the test system is UTI89. Description: Chronic cystitis mouse model, bladder titers after oral mannoside treatment. The note with it: PO 50 mg/kg, 6 hours posttreatment, relative to PBS. The format is in vivo, E. coli (UPEC); host C3H/HeN mouse. As to the method:
Mice were infected with the uropathogenic E. coli (UPEC) strain UTI89. Animals that established chronic infection were treated at day 12 post infection with 5 doses of 50 mg/kg of Mannoside 8 administered 8 h apart (mice treated with PBS in the same way were included as controls). Mice were sacrificed 48 h post initial dose and bladder titers were enumerated.
In order to determine the therapeutic potential of 6 for treating chronic UTIs, a unique preclinical murine model was adopted. In humans, the ultimate outcome of UPEC infection of the urinary tract ranges from asymptomatic bacteriuria to acute self-limiting infection to chronic/recurrent UTI. Similarly, the outcome of UTI in C3H/HeN mice ranges from self-limiting to long-lasting, chronic cystitis characterized by persistent, high titer bacteriuria (>10^4 colony forming units (CFU)/ml), high titer bacterial bladder burdens at sacrifice >2 weeks post-infection (wpi), chronic inflammation, and urothelial necrosis. […] Thus, C3H/HeN mice were infected with 1×10^7 CFU of UTI89 and mice developing chronic cystitis, as determined by persistent urine titers of […] through 2 weeks post infection (wpi), were PO treated at 2 wpi with 6 at a single dose of 100 or 50 mg/kg to evaluate the ability of mannoside to treat UTI. 6 hours post-treatment bacterial counts in the bladder were enumerated. […]

Assay [7] concerns the target FimH (Escherichia coli, UniProt Q1R2J4).
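Throughout, for HAI: hemagglutination inhibition of guinea pig erythrocytes agglutinated by type 1 piliated uropathogenic E. coli via FimH mannose binding, quantified through serial dilutions of compound.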
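Throughout, for fold better (HAI): hemagglutination inhibition of guinea pig erythrocytes agglutinated by type 1 piliated uropathogenic E. coli via FimH mannose binding, quantified through serial dilutions of compound.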
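Throughout, for fold improvement (HAI): hemagglutination inhibition of guinea pig erythrocytes agglutinated by type 1 piliated uropathogenic E. coli via FimH mannose binding, quantified through serial dilutions of compound.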
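Throughout, for fold more potent in vitro: hemagglutination inhibition of guinea pig erythrocytes agglutinated by type 1 piliated uropathogenic E. coli via FimH mannose binding, quantified through serial dilutions of compound.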

As for `COc1cc(Cc2cnc(N)nc2N)cc(OC)c1OC` [TMP, Trimethoprim], the MIC is 256 µg/mL (≈ 882 µM) in assay [1] (Escherichia coli, read-out: Minimum Inhibition Concentration (MIC)); 0.000256 µg/mL (≈ 0.000882 µM) in assay [1]; 0.05 µg/mL (≈ 0.172 µM) in assay [2].

As for `COC1O[C@H](CO)[C@@H](O)[C@H](O)[C@@H]1O` (some centres unmarked) [methyl mannose], in assay [3], the “biofilm biomass (crystal violet)” value is listed as “significantly reduced biomass; also recorded: prevents UPEC biofilm formation” and the “biofilm-adherent cells (CFU)” value was “significantly reduced”.

Regarding `Cc1cc(NS(=O)(=O)c2ccc(N)cc2)no1` [SMZ, Sulfamethoxazole], in assay [2], the MIC was determined as 0.25 µg/mL (≈ 0.987 µM).

Regarding `CCCCO[C@H]1O[C@H](CO)[C@@H](O)[C@H](O)[C@@H]1O` [butylmannoside, α-D-butylmannoside], the pKd in assay [4] (read-out: KD) is 6.82.

In assay [5], `CCCCCCCOC1OC(CO)C(O)C(O)C1O` (centres unmarked) [Heptyl mannoside, reference compound] had a pEC50 of 7.05. The pKd in assay [4] was 8.30.

Turning to `CNC(=O)c1cc(C(=O)NC)cc(-c2ccc(O[C@H]3O[C@H](CO)[C@@H](O)[C@H](O)[C@@H]3O)c(C(F)(F)F)c2)c1` [Compound 10, N1,N3-dimethyl-5-[3-(trifluoromethyl)-4-[(2R,3S,4S,5S,6R)-3,4,5-trihydroxy-6-(hydroxymethyl)tetrahydropyran-2-yl]oxy-phenyl]benzene-1,3-dicarboxamide], the “reduction in bladder bacterial counts” value in assay [6] is 4 log and 3 log. Also, the “fold more potent in vitro” value in assay [7] (10 relative to 8, Examples 25-29 numbering) was found to be 8 fold. Besides, the HAI in assay [7] (Examples 25-29 numbering) was determined as 8 nM. The “fold improvement (HAI)” value in assay [7] (over butyl-α-D-mannoside) is listed as 15,000 fold. The “fold better (HAI)” value in assay [7] (than lead 6, Examples 25-29 numbering) is 50 fold.
